According to patent US12485116B2, “Pharmaceutical composition for preventing or treating epidemic RNA viral infectious disease” (priority 2020, dated 2025):

Key:
Ebola virus [1] = details: guinea pig models infected with Ebola virus; cited from earlier work
SARS-CoV-2 [2] = test: Antiviral efficacy by RNA copy numbers (qRT-PCR, RdRp gene), co-treatment, Vero cells
SARS-CoV-2 [3] = test: Antiviral efficacy by RNA copy numbers (qRT-PCR), co-treatment, Calu-3 human lung cell line; details: Calu-3 cells; for selectivity index, SI / IC50: 48 hours post-infection; for IC50: co-treatment
Vero cells [4] = test: Cytotoxicity, tetrazolium salts-based assay (WST-1), Vero cells; format: cell-based, African green monkeys (Chlorocebus sp.); details: all conditions tested (3.13, 12.5, 50 μM)
SARS-CoV-2 [5] = test: Post-infection treatment, viral plaque assay, Calu-3 cells; format: cell-based, SARS-CoV-2 (a Korean isolate); details: Severe acute respiratory syndrome coronavirus 2, Calu-3, 12.5 μM, 48 hours after drug treatment
Description: In Experimental Example 6, pyronaridine tetraphosphate or artesunate was treated each in Calu-3 cells at 0, 2, 4, 6, 8, 10, 12, 24 and 36 hours after SARS-CoV-2 (a Korean isolate) inoculation, and evaluated how long hours the inhibitory effect of each drug were retained against virus infections.
Calu-3 cells and viruses were prepared in the same manner as shown in Experimental Example 5.
After dissolving pyronaridine tetraphosphate and artesunate in DMSO each, it was diluted to 12.5 μM using media. At 1 hour after the inoculation with SARS-CoV-2 (MOI=0.1), the supernatant was removed, and Calu-3 cells were washed, followed by the addition of DMEM culture media containing 2% bovine serum. The culture media containing drugs were added at 0, 2, 4, 6, 8, 10, 12, 24 and 36 hours each. At 48 hours after each drug treatment, cell supernatants were harvested and a plaque assay—in which the plaques generated by infectious virus infection were counted in Vero cells, cells used for virus amplification—was performed. The DMEM-F12 medium layer containing 2% agarose was laid on the layer of infected Vero cells, and the number of plaques was counted by using counter-staining with crystal violet, after incubation for 72 hours.

Ebola virus [6] = details: in vitro assays; cited from earlier work
[7] = Cytotoxicity (WST-1), Calu-3 cells; details: human
Ebola virus [8] = details: cited from earlier work
Vero cells [9] = details: African green monkey (Chlorocebus sp.)
SARS-CoV-2 [10] = test: In vivo antiviral efficacy in SARS-CoV-2-infected hamsters, lung virus titer by plaque assay; parameters: species or system Syrian hamsters; details: 360 mg/kg alone, oral, once at 25 hours post-infection, 4-day post-infection; vehicle control 8.30
Ebola virus [11] = details: Vero cells; cited from earlier work
in vitro = details: human
SARS-CoV-2 [12] = test: Antiviral efficacy by immunofluorescence staining imaging, pretreatment, Vero cells; details: 50 μM, pretreated 1 hour, 24 hours post-infection
Vero cells [13] = details: cited from earlier work
Hela cells = details: cited from earlier work
Ebola virus [14] = details: Hela cells; cited from earlier work
[15] = added at up to 6 hours post-infection
[16] = added at up to 12 hours post-infection
[17] = added at up to 24 hours post-infection
[18] = co-treatment, Vero cells, 24 hours after infection

Question: With `CCN(CC)CCCC(C)Nc1ccnc2cc(Cl)ccc12` (stereo not drawn) [chloroquine] as the molecule, how does the antiviral effect (Ebola virus [1]) read?
Answer: Its antiviral effect is “did not show antiviral effect”.

Question: Which “antiviral efficacy in the monkey cell lines” value (SARS-CoV-2 [2]; monkey cell lines (Vero)) does the source give for `CCN(CCO)CCCC(C)Nc1ccnc2cc(Cl)ccc12` (stereo not drawn) [hydroxychloroquine] here?
Answer: Its value is “showed antiviral efficacy”.

Question: And the “antiviral effect in the human lung cell lines” value (SARS-CoV-2 [3]; at less than 50 μM)?
Answer: Its value is “no antiviral effect”.

Question: What does the source list for `C[C@H]1[C@H](OC(=O)CCC(=O)O)O[C@@H]2O[C@@]3(C)CC[C@H]4[C@H](C)CC[C@@H]1[C@@]24OO3` [artesunate]?
Answer: cytotoxicity (Vero cells [4]): no significant cytotoxicity; inhibition at 12.5 µM (SARS-CoV-2 [5]; [15]): 92 to 96%; inhibition at 12.5 µM (SARS-CoV-2 [5]; [16]): > 90%; inhibition at 12.5 µM (SARS-CoV-2 [5]; [17]): 48%; antiviral efficacy against Ebola virus (Ebola virus [6]): showed an antiviral efficacy; CC50 at 48 h [7]: > 100 µM; inhibition rate (SARS-CoV-2 [2]; 3.13 μM, 48 hours post-infection, Vero cells): 39%; inhibition rate (SARS-CoV-2 [2]; 12.5 μM, 24 hours post-infection, Vero cells): 40%; inhibition rate (SARS-CoV-2 [2]; 12.5 μM, 48 hours post-infection, Vero cells): 51%; inhibition rate against virus (SARS-CoV-2 [2]; 50 μM, Vero cells, co-treatment): 83%; selectivity index, SI (SARS-CoV-2 [3]): > 220.8; IC50 (SARS-CoV-2 [3]): 0.45 µM

Question: What does the source list for `COc1ccc2nc3cc(Cl)ccc3c(Nc3cc(CN4CCCC4)c(O)c(CN4CCCC4)c3)c2n1` [pyronaridine]?
Answer: virus titer and survival rate (Ebola virus [8]; Ebola virus-challenged mouse models): significantly improved; mortality and viral infection rate (Ebola virus [8]; mouse models challenged with Ebola virus): significantly inhibited; cytotoxicity increased by drug pretreatment (Vero cells [9]): 17%; median infectious virus titer in the lung tissues (SARS-CoV-2 [10]): 7.22 Log10 PFU; antiviral activity against Ebola virus at a concentration below CC50 (Ebola virus [11]): no antiviral activity; CC50 at 48 h (in vitro): > 100 µM; virus inhibition rate (SARS-CoV-2 [12]): 70%; CC50 (Vero cells [13]): 1.3 µM; CC50 (Hela cells): 3.1 µM; EC50 (Ebola virus [14]): 0.42 to 1.12 µM; inhibition at 12.5 µM (SARS-CoV-2 [5]; [15]): > 99%; inhibition at 12.5 µM (SARS-CoV-2 [5]; [16]): > 94%; inhibition at 12.5 µM (SARS-CoV-2 [5]; [17]): 90%; selectivity index, SI (SARS-CoV-2 [2]; Vero cells, co-treatment): > 1.40; EC50 (SARS-CoV-2 [2]; [18]): 8.27 µM; inhibition at non-cytotoxic concentrations (SARS-CoV-2 [2]; [18]): more than 90%; selectivity index, SI (SARS-CoV-2 [3]): > 11.66; IC50 (SARS-CoV-2 [3]): 8.58 µM
